Results published in patent US10450549B2, “Aryloxyphenoxypropionate tolerance in turfrgass species and use of AAD1 as a selectable marker” (Dow AgroSciences, LLC, priority 2004, dated 2019).

Tests used:
AAD1 (v3) event lines = assay: Field tolerance of pDAB3404 T1 corn to quizalofop and 2,4-D: AAD1 (v3) events; format: in vivo; settings: 140 g ae/ha
Source text: Two field trials were established at field stations in Hawaii and Indiana. […] The hybrid Hi-II×5XH571 is of the same parentage as the AAD1 (v3) event lines. The hybrid Croplan 585SR is a sethoxydim resistant line.
The experimental design was a split-plot with four replications. The main plot was herbicide treatment and the sub-plot was AAD1 (v3) event or comparison hybrid. Plots were one row by 3.7 meters with approximately twenty-five seeds planted in each row. For AAD1 events, seeds from a different lineage within the event were planted in each replicate.
Glufosinate at 560 g ai/ha was applied to AAD1 (v3) plots at the V2 stage to eliminate non-transformed plants. […] Treatments were applied using backpack broadcast boom equipment delivering 187 L/ha carrier volume at 130-200 kpa pressure.
Quizalofop treated plots were visually assessed for crop injury at one and three weeks after application (WAA) using a 0-100% scale, where 0 equals no injury and 100 equals complete death.

[1] = tested on: T4 Arabidopsis homozygous for AAD1 (v3) (line AAD1.01.315.076); assay: Foliar-applied auxinic herbicides on homozygous T4 AAD1 (v3) Arabidopsis, % injury 14 DAT; format: in vivo, Arabidopsis thaliana; settings: AAD1.01.315.076.T4 homozygous AAD1 plants
Summary of the method: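 Homozygous T4 AAD1 (v3) Arabidopsis (line AAD1.01.315.076) and a PAT/Cry1F transformed control were grown in pots and track-sprayed foliarly at 187 L/ha with herbicides formulated in 200 mM Hepes pH 7.5. Injury was rated 14 days after treatment, with 3-4 replicates averaged over two experiments.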

C[C@@H](Oc1ccc(Oc2cnc3cc(Cl)ccc3n2)cc1)C(=O)O [quizalofop]
% Injury 3 WAA (0-100 scale) (AAD1 (v3) event lines; HI, 3404.001): 25% | % Injury 3 WAA (0-100 scale) (AAD1 (v3) event lines; HI, 3404.006): 0% | % Injury 3 WAA (0-100 scale) (AAD1 (v3) event lines; HI, 3404.013): 0% | % Injury 3 WAA (0-100 scale) (AAD1 (v3) event lines; HI, 3404.017): 0% | % Injury 3 WAA (0-100 scale) (AAD1 (v3) event lines; HI, 3404.020): 0% | % Injury 3 WAA (0-100 scale) (AAD1 (v3) event lines; HI, 3404.022): 0% | % Injury 3 WAA (0-100 scale) (AAD1 (v3) event lines; HI, 3404.025): 0% | % Injury 3 WAA (0-100 scale) (AAD1 (v3) event lines; HI, 3404.027): 0% | % Injury 3 WAA (0-100 scale) (AAD1 (v3) event lines; HI, 3404.031): 0% | % Injury 3 WAA (0-100 scale) (AAD1 (v3) event lines; HI, 3404.033): 0% | % Injury 3 WAA (0-100 scale) (AAD1 (v3) event lines; HI, 3404.036): 0% | % Injury 3 WAA (0-100 scale) (AAD1 (v3) event lines; HI, 3404.044): 0% | % Injury 3 WAA (0-100 scale) (AAD1 (v3) event lines; HI, 3404.050): 0% | % Injury 3 WAA (0-100 scale) (AAD1 (v3) event lines; HI, 3404.053): 0% | % Injury 3 WAA (0-100 scale) (AAD1 (v3) event lines; HI, 3404.074): 0% | % Injury 3 WAA (0-100 scale) (AAD1 (v3) event lines; HI, 3404.082): 0% | % Injury 3 WAA (0-100 scale) (AAD1 (v3) event lines; IN, 3404.001): 25% | % Injury 3 WAA (0-100 scale) (AAD1 (v3) event lines; IN, 3404.006): 0% | % Injury 3 WAA (0-100 scale) (AAD1 (v3) event lines; IN, 3404.013): 0% | % Injury 3 WAA (0-100 scale) (AAD1 (v3) event lines; IN, 3404.017): 0% | % Injury 3 WAA (0-100 scale) (AAD1 (v3) event lines; IN, 3404.020): 0% | % Injury 3 WAA (0-100 scale) (AAD1 (v3) event lines; IN, 3404.022): 0% | % Injury 3 WAA (0-100 scale) (AAD1 (v3) event lines; IN, 3404.025): 0% | % Injury 3 WAA (0-100 scale) (AAD1 (v3) event lines; IN, 3404.027): 0% | % Injury 3 WAA (0-100 scale) (AAD1 (v3) event lines; IN, 3404.031): 0% | % Injury 3 WAA (0-100 scale) (AAD1 (v3) event lines; IN, 3404.033): 0% | % Injury 3 WAA (0-100 scale) (AAD1 (v3) event lines; IN, 3404.036): 0% | % Injury 3 WAA (0-100 scale) (AAD1 (v3) event lines; IN, 3404.044): 0% | % Injury 3 WAA (0-100 scale) (AAD1 (v3) event lines; IN, 3404.050): 0% | % Injury 3 WAA (0-100 scale) (AAD1 (v3) event lines; IN, 3404.053): 0% | % Injury 3 WAA (0-100 scale) (AAD1 (v3) event lines; IN, 3404.074): 0% | % Injury 3 WAA (0-100 scale) (AAD1 (v3) event lines; IN, 3404.082): 0%

Nc1c(Cl)c(F)nc(OCC(=O)O)c1Cl [Fluroxypyr]
Ave % Injury 14DAT ([1]; 50 g ae/ha foliar): 48% | Ave % Injury 14DAT ([1]; 200 g ae/ha foliar): 75% | Ave % Injury 14DAT ([1]; 800 g ae/ha foliar): 88% | Ave % Injury 14DAT ([1]; 3200 g ae/ha foliar): 95%
